Experimental data: ChEMBL document CHEMBL2062379, “Cleavage mechanism and anti-tumor activity of 3,6-epidioxy-1,10-bisaboladiene isolated from edible wild plants” (Bioorg Med Chem, 2012)
Active and inactive are the calls of the source. The rule behind the calls is not given here.

Experiments:
OVCAR-3 = experiment: Growth inhibition of human OVCAR3 cells; assay type: functional
[1] = Induction of ROS generation at 10 uM after 3 hrs by spectrofluorometric analysis in presence of FeSO4; assay type: physicochemical
Mus musculus = experiment: Toxicity in nude mouse bearing human LOXIMVI cells assessed as change in body weight at 25 mg/kg, iv administered on day 1, 6 and 11; assay type: organism-based, LOX IMVI; set-up: dose 25 mg/kg, route intravenous; conditions: in vivo
SNB-78 = experiment: Growth inhibition of human SNB78 cells; assay type: functional
St-4 = experiment: Growth inhibition of human St-4 cells; assay type: functional
Saccharomyces cerevisiae [2] = experiment: Growth restoration activity in cdc2-1 rad9-deficient Saccharomyces cerevisiae assessed as growth zone incubated at 37 degC for 6 hrs and 28 degC for 2 days; assay type: functional, organism-based
Saccharomyces cerevisiae [3] = experiment: Growth restoration activity in cdc2-1 rad9-deficient Saccharomyces cerevisiae assessed as growth zone at 4 ug/disc incubated at 37 degC for 6 hrs and 28 degC for 2 days; assay type: functional
HL-60 [4] = experiment: Induction of ROS generation in human HL60 cells at 10 uM measured immediately by spectrofluorometric analysis; assay type: functional, cell-based
HL-60 [5] = experiment: Cytotoxicity against human HL60 cells after 48 hrs by MTT assay; assay type: functional, cell-based; conditions: HL-60, 48 h
OVCAR-4 = experiment: Growth inhibition of human OVCAR4 cells; assay type: functional
SF-268 = experiment: Growth inhibition of human SF268 cells; assay type: functional
NCI-H226 = experiment: Growth inhibition of human NCI-H226 cells; assay type: functional
[6] = Growth inhibition of human HBC4 cells; assay type: functional
HL-60 [7] = experiment: Induction of apoptosis in human HL60 cells assessed as DNA fragmentation after 24 hrs by Hoechst staining-based microscopic analysis preincubated with 10 uM ERK inhibitor PD98059; assay type: functional, cell-based
OVCAR-8 = experiment: Growth inhibition of human OVCAR8 cells; assay type: functional
NCI-H460 = experiment: Growth inhibition of human NCI-H460 cells; assay type: functional
HL-60 [8] = experiment: Induction of ROS generation in human HL60 cells at 10 uM after 3 hrs by spectrofluorometric analysis; assay type: functional, cell-based
HL-60 [9] = experiment: Induction of apoptosis in human HL60 cells assessed as caspase 8 activation after 1 to 6 hrs by spectrophotometric analysis; assay type: functional, cell-based
SK-OV-3 = experiment: Growth inhibition of human SKOV3 cells; assay type: functional
SNB-75 = experiment: Growth inhibition of human SNB75 cells; assay type: functional
DMS-114 = experiment: Growth inhibition of human DMS114 cells; assay type: functional
DMS-273 = experiment: Growth inhibition of human DMS273 cells; assay type: functional
HT-29 = experiment: Growth inhibition of human HT-29 cells; assay type: functional
MDA-MB-231 = experiment: Growth inhibition of human MDA-MB-231 cells; assay type: functional
HCT-15 = experiment: Growth inhibition of human HCT15 cells; assay type: functional

## CC(C)=CCCC(C)C12C=CC(C)(CC1)OO2 (stereo not given)
OVCAR-3
  GI50: 1.74 µM
[1]
  Activity: Active
Mus musculus
  Activity: Non-toxic
SNB-78
  GI50: 1.55 µM
St-4
  GI50: 5.37 µM
Saccharomyces cerevisiae [2]
  Activity: Dose-dependent effect
Saccharomyces cerevisiae [3]
  Activity: 29 mm
HL-60 [4]
  Activity: Active
HL-60 [5]
  IC50: 3.4 µM
OVCAR-4
  GI50: 1.82 µM
SF-268
  GI50: 7.08 µM
NCI-H226
  GI50: 3.89 µM
[6]
  GI50: 1.12 µM
HL-60 [7]
  Activity: Active
OVCAR-8
  GI50: 12 µM
NCI-H460
  GI50: 0.832 µM
HL-60 [8]
  Activity: inactive
HL-60 [9]
  Activity: Dose-dependent effect
SK-OV-3
  GI50: 7.94 µM
SNB-75
  GI50: 1.32 µM
DMS-114
  GI50: 10.7 µM
DMS-273
  GI50: 1.15 µM
HT-29
  GI50: 0.178 µM
MDA-MB-231
  GI50: 11.7 µM
HCT-15
  GI50: 4.9 µM
